Laboratory results as given in US10239889B1, “Pentacyclic compound” (Eisai R&D Management Co., Ltd., priority 2017, dated 2019).

Tests used:
[1] = tested on: rat primary septal neuron culture; experiment: Measurement of acetylcholine (ACh) release in the rat primary septal neuron culture system in the presence of NGF; assay type: cell-based; conditions: rat primary septal neurons, with NGF, one day after compound addition, ACh by HPLC
From the text: Measurement of acetylcholine (ACh) release in the rat primary septal neuron culture system in the presence of NGF
(1) Rat Primary Septal Neuron Culture
The septal area was isolated from Sprague-Dawley (SD) rats (Charles River Laboratories Japan, Inc.) at a fetal age of 18 days, and cultured.
Specifically, fetuses were aseptically removed from pregnant rats under isoflurane anesthesia. The brain was extracted from each fetus, and immersed in ice-cooled L-15 medium (11415-064, Thermo Fisher Scientific). The septal area was dissected from the extracted brain under a stereoscopic microscope. The dissected septal area was subjected to enzyme treatment in an enzyme solution containing 0.25% trypsin (15050-065, Thermo Fisher Scientific) and 0.01% DNase (D5025-150KU, Sigma) at 37° C. for 30 minutes, thereby dispersing the cells. In this case, the enzyme reaction was terminated by adding inactivated horse serum (26050-088, Thermo Fisher Scientific). The enzyme-treated solution was centrifuged at 1000 rpm for 3 minutes, and the supernatant was removed. A medium in an amount of 10 mL was added to the obtained cell mass. The medium used was Dulbecco's Modified Eagle's Medium (044-29765, WAKO) supplemented with N2 supplement (17502-048, Thermo Fisher Scientific), 1 mM sodium pyruvate (11360-070, Thermo Fisher Scientific), and Penicillin-Streptomycin (15140-1221, Thermo Fisher Scientific). The cells of the cell mass to which the medium was added were redispersed by gentle pipetting, and then centrifuged again at 1000 rpm for 3 minutes, and the supernatant was removed. The medium in an amount of 10 mL was added to the obtained cell mass, and the cell dispersion was filtered through a 40-μm nylon mesh (Cell Strainer) to remove the cell mass, thereby obtaining a neuronal cell suspension. The neuronal cell suspension was diluted with the medium, and 10% inactivated bovine serum (26140-079, Thermo Fisher Scientific) and 10% inactivated horse serum were added. Thereafter, 100 μL/well of the suspension was seeded in a 96-well plate (354461, CORNING) pre-coated with poly-D-lysine so that the initial culture density was 1.4×10^5 cells/cm^2. After the seeded cells were cultured under 5% CO2-95% air in a 37° C. incubator for 2 days, the entire medium was replaced with 120 μL of fresh medium, and the cells were subsequently cultured for 5 days.
On the 7th day of culture, compound was added in the following manner. A solution of the test compound in DMSO was diluted with the medium so that the concentration was 10 times higher than the final concentration. NGF (450-01, PEPRO TECH, INC.) was prepared at 0.3 ng/mL. These two solutions were added each in an amount of 15 μL/well, and the mixture was mixed well. The final DMSO concentration was 0.1% or less. Moreover, only DMSO and NGF were added to the control group.
(3) ACh Release Measurement
One day after compound addition, an amount of ACh release was measured by HPLC in the following manner. A warmed buffer was added at 100 μL/well to the well after the medium was eliminated, and the buffer was immediately removed. Thereafter, a buffer to which 10 μm choline, 10 μm physostigmine, and 6 mM KCl were added was added at 120 μL/well. The buffer was prepared by adding 125 mM NaCl, 25 mM 4-(2-hydroxyethyl)-1-piperazineethanesulfonic acid, 1.2 mM KH2PO4, 1.2 mM MgSO4, 2.2 mM CaCl2 (2H2O), and 10 mM glucose to sterilized water, and the final pH of the solution was set to 7.4. After the 96-well plate to which the buffer was added was incubated under 5% CO2-95% air in a 37° C. incubator for 40 minutes, 80 μL of buffer was collected. An internal standard solution IPHC (5×10^−7 M) was added in an amount of 6 μL to the collected buffer, and the buffer was transferred to a tube for HPLC measurement and subjected to HPLC measurement. […]

[2] = tested on: Choline Acetyltransferase (ChAT) mRNA; experiment: Measurement of choline acetyltransferase (ChAT) mRNA expression levels in the rat septal area; assay type: in vivo; conditions: SD rat medial septum, 24 hours after administration, qPCR
Protocol: Measurement of Choline Acetyltransferase (ChAT) mRNA Expression Levels in the Rat Septal Area
(1) Compound Administration
In this study, SD male rats (Charles River Laboratories Japan, Inc.) with a body weight of about 250 to 350 g were used. The compound was dissolved in 0.01 mol/L hydrochloric acid, and orally administered.
At 24 hours after the administration of the compound, the whole brain tissue was collected under pentobarbital anesthesia. The medial septum was isolated from whole brain on ice and frozen with liquid nitrogen, and then stored at −80° C.
(3) Measurement of ChAT mRNA Expression Levels
For RNA purification, RNeasy Plus Mini Kit (#74136: QIAGEN) was used in this study. RNA purification was performed by the method described in the kit. After RNA purification, the total RNA concentration was measured by using QIAxpert Instrument (QIAGEN). cDNA was synthesized using SuperScript® VILO™ cDNA Synthesis Kit (#11754: Thermo Fisher Scientific). The synthesis of cDNA was performed by the method described in the kit. The synthesized cDNA was diluted 4 times with RNase free water, and the diluted cDNA solution was used as a sample. Taqman Universal PCR Master Mix (#4304437: Thermo Fisher Scientific), Taqman® Gene Expression Assays, INVENTORIED (#4331182: Thermo Fisher Scientific), RNase free water, and the cDNA solution were mixed in amounts of 10 μl, 1 μl, 4 μl, and 5 μl, respectively, and the resulting mixture was used as a measurement sample solution. Quantitative polymerase chain reaction (qPCR) was conducted using ABI PRISM® 7900HT (Thermo Fisher Scientific) by a fluorescence probe method. Analysis was performed by SDS 2.4 (Thermo Fisher Scientific). The results were calculated by the percentage of the amount of ChAT mRNA expression levels in the compound administration group increased from the amount of ChAT mRNA expression levels in the vehicle administration group.

| Compound | Concentration (μM) showing a 20% or more increase from the amount of ACh in the control group [1] | Amount (%) increased from the amount of ChAT mRNA expression levels in the vehicle administration group ([2]; oral 3 mg/kg) | Amount (%) increased from the amount of ChAT mRNA expression levels in the vehicle administration group ([2]; oral 10 mg/kg) |
| --- | --- | --- | --- |
| CN1CCc2c(sc3nc4n(c(=O)c23)-c2ccsc2C(=O)N(C)C4)C1 [Example 2, 5,10-dimethyl-5,6,9,10,11,12-hexahydropyrido[4″,3″:4′,5′]thieno[2′,3′:4,5]pyrimido[1,2-a]thieno[2,3-f][1,4]diazepine-4,13-dione] | 0.1 µM | 38.0% |  |
| CN1CCc2c(sc3nc4n(c(=O)c23)[C@H]2CCC[C@@H]2C(=O)N(C)C4)C1 [Example 6, (3aS,14aS)-5,10-dimethyl-3,3a,5,6,9,10,11,12-octahydro-H-cyclopenta[f]pyrido[4″,3″:4′,5′]thieno[2′,3′:4,5]pyrimido[1,2-a][1,4]diazepine-4,13(2H,14aH)-dione] | 0.03 µM |  | 32.0% |
| CN1CCc2c(sc3nc4n(c(=O)c23)[C@@H]2CCC[C@H]2C(=O)N(C)C4)C1 [Example 5, (3aR,14aR)-5,10-dimethyl-3,3a,5,6,9,10,11,12-octahydro-1H-cyclopenta[f]pyrido[4″,3″:4′ 5′]thieno[2′,3′:4,5]pyrimido[1,2-a][1,4]diazepine-4,13(2H,14aH)-dione] | 0.1 µM | 33.6% |  |
| CN1CCc2c(sc3nc4n(c(=O)c23)[C@@H]2CCC[C@@H]2C(=O)N(C)C4)C1 [Example 4, (3aS,14aR)-5,10-dimethyl-3,3a,5,6,9,10,11,12-octahydro-1H-cyclopenta[f]pyrido[4″,3″:4′,5′]thieno[2′,3′:4,5]pyrimido[1,2-a][1,4]diazepine-4,13(2H,14aH)-dione] | 0.1 µM |  | 42.4% |
